Source: EP0371732A1, “Dopamine-beta-hydroxylase inhibitors” (SMITHKLINE BEECHAM CORPORATION, priority 1988, dated 1990)

Tests used:
[1] = system: spontaneously hypertensive rats; test: mean arterial blood pressure in spontaneously hypertensive rats, indwelling cannulae in the tail arteries; format: in vivo; conditions: 50 mg/kg intraperitoneally, compared to vehicle-treated controls
Protocol: Further, spontaneously hypertensive rats were treated with 1-(2-pyrrylmethyl)-1,3-dihydro-2H-imidazole-2-thione at a dose of 50 mg/kg intraperitoneally, and mean arterial blood pressure was monitored for 250 minutes using indwelling cannulae in the tail arteries. […] The maximal blood pressure reduction was approximately 35-40 mmHg.

[2] = Teresawa et al., Japan. Cir. J. 35, 339 (1971); cited from earlier work
[3] = biological target: T1, DBH (Homo sapiens, UniProt P09172); conditions: reported by Runti et al.; cited from earlier work
T1 sequence (P09172 1-617): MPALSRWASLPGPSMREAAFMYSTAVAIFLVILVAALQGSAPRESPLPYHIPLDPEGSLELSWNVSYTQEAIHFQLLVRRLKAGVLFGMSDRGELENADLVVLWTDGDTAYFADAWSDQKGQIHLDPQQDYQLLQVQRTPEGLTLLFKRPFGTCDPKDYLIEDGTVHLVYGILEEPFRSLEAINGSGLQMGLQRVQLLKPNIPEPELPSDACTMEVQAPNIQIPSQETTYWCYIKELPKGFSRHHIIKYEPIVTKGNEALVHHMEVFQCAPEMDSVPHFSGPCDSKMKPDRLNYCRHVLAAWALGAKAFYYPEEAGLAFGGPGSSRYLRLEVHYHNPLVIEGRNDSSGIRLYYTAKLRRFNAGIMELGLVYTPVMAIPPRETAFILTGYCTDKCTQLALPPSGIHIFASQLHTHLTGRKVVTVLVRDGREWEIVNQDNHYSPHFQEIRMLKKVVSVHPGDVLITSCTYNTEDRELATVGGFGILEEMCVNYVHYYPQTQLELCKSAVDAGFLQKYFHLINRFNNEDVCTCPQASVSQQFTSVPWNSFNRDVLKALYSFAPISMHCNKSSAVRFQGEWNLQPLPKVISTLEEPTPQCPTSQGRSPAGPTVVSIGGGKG

Which results are given for `S=c1[nH]ccn1Cc1ccc[nH]1` [1-(2-Pyrrylmethyl)-1,3-dihydro-2H-imidazole-2-thione]?
time to significant blood pressure reductions following treatment [1]: ≤ 30 min; maximal blood pressure reduction ([1]; monitored for 250 minutes, lowest blood pressures when monitoring was discontinued): 35-40 mmHg

Which toxic effect [2] does the source give for `CCCCc1ccc(C(=O)O)nc1` [Fusaric acid] here?
Its toxic effect is “hepatotoxic”.

With phenylpicolinic acid as the compound, how does the “inhibitory activity relative to fusaric acid” value [3] read?
Its value is “twice the inhibitory activity of fusaric acid”.
